This assay deals with T1, BRD9 (Homo sapiens, UniProt Q9H8M2).
T1 sequence (Q9H8M2 1-597): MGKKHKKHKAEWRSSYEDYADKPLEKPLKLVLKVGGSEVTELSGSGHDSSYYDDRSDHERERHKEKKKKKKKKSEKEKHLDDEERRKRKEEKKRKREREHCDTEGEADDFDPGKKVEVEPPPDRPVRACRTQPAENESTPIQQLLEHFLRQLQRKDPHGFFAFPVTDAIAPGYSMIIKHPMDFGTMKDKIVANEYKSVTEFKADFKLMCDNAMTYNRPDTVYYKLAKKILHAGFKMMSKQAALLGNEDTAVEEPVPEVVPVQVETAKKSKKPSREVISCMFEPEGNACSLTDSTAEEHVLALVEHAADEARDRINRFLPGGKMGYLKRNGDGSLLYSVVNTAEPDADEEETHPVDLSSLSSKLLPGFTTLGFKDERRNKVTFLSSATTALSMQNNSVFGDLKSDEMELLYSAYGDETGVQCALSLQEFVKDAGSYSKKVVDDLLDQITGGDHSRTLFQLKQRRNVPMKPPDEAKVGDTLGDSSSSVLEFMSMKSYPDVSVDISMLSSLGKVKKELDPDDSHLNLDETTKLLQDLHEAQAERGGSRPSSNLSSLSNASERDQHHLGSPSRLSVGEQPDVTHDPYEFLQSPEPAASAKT
The assay is described as follows: Degradation of BRD9 (IF), immunofluorescence in MV4-11 cells, 24 hours (Assay Protocol 2). It counts as cell-based. Also on record: A suspension of MV4-11 cells (ATCC CRL-9591) was prepared; host or cells: MV4-11. To be noted: BRD9 degradation; for DC50: Assay protocol 2, read-out: DC50; for Dmax: MV4-11, Assay protocol 2, read-out: Dmax. Put shortly: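 % BRD9 remaining, scaled between DMSO (high) and 100 nM CFT-8634 (low) control wells, derives from mean Alexa 647 contrast in central nuclei by high-content imaging. MV4-11 cells had 24 h compound exposure at 37° C. before PFA fixation, Triton permeabilisation and anti-BRD9 E4Q3F immunostaining.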

A value given as a limit tells only on which side of the number the result lay.

From patent publication US20260092061A1, “COMPOUNDS FOR TARGETED PROTEIN DEGRADATION” (Amphista Therapeutics Limited, priority 2022, published 2026) come the findings set out here.

The term DC50 denotes the concentration at which degradation of the target reaches its halfway point. In general, Dmax refers to the greatest extent of degradation seen. In the case of `COc1cnc(F)c(/C=C(\C#N)C(=O)N2CCc3c(CN4CCN(Cc5c(OC)cc(-c6cn(C)c(=O)c(C)c6C)cc5OC)CC4)cccc3C2C)c1` (mixture of isomers) [Compound B75, (E/Z)-2-(5-((4-(2,6-dimethoxy-4-(1,4,5-trimethyl-6-oxo-1,6-dihydropyridin-3-yl)benzyl)piperazin-1-yl)methyl)-1-methyl-1,2,3,4-tetrahydroisoquinoline-2-carbonyl)-3-(2-fluoro-5-methoxypyridin-3-yl)acrylonitrile], the DC50 was in the range of 1.25 to 10 nM and the maximal degradation (Dmax) was in the range of 40 to 70%.
For the molecule `CCCC1c2cccc(CN3CCN(Cc4c(OC)cc(-c5cn(C)c(=O)c(C)c5C)cc4OC)CC34CC4)c2CCN1C(=O)/C(C#N)=C/C(C)(C)C` (mixture of isomers) [Compound C17, (E/Z)-2-(5-((7-(2,6-dimethoxy-4-(1,4,5-trimethyl-6-oxo-1,6-dihydropyridin-3-yl)benzyl)-4,7-diazaspiro[2.5]octan-4-yl)methyl)-1-propyl-1,2,3,4-tetrahydroisoquinoline-2-carbonyl)-4,4-dimethylpent-2-enenitrile], the DC50 fell in the range of 1.25 to 10 nM and the Dmax was > 75%.
The matching figures for `COc1cc(-c2cn(C)c(=O)c3[nH]ncc23)cc(OC)c1CN1CCN(Cc2ccc3c(c2)[C@@H](C)N(C(=O)/C(C#N)=C/C(C)(C)C)CC3)C2(CC2)C1` (single isomer, unassigned) [Compound C6, (E/Z)-2-(7-((7-(2,6-dimethoxy-4-(6-methyl-7-oxo-6,7-dihydro-1H-pyrazolo[3,4-c]pyridin-4-yl)benzyl)-4,7-diazaspiro[2.5]octan-4-yl)methyl)-1-methyl-1,2,3,4-tetrahydroisoquinoline-2-carbonyl)-4,4-dimethylpent-2-enenitrile]: < 1.25 nM and > 75%.
Regarding `COc1cc(-c2cn(C)c(=O)c(C)c2C)cc(OC)c1CN1CCN(C(=O)CCCCOc2ccc3c(c2)C(C)N(C(=O)/C(C#N)=C/c2nccs2)CC3)CC1` (mixture of isomers) [Compound B84, (E/Z)-2-(7-((5-(4-(2,6-dimethoxy-4-(1,4,5-trimethyl-6-oxo-1,6-dihydropyridin-3-yl)benzyl)piperazin-1-yl)-5-oxopentyl)oxy)-1-methyl-1,2,3,4-tetrahydroisoquinoline-2-carbonyl)-3-(thiazol-2-yl)acrylonitrile], the DC50 was 1.25 to 10 nM and the Dmax is > 75%.
Consider `COc1cc(-c2cn(C)c(=O)c(C)c2C)cc(OC)c1CN1C2CC1CN(C(=O)/C(C#N)=C/c1cccc(C(F)(F)F)n1)C2` (mixture of isomers) [Compound B188, (E/Z)-2-(6-(2,6-dimethoxy-4-(1,4,5-trimethyl-6-oxo-1,6-dihydropyridin-3-yl)benzyl)-3,6-diazabicyclo[3.1.1]heptane-3-carbonyl)-3-(6-(trifluoromethyl)pyridin-2-yl)acrylonitrile], for which the DC50 was < 1.25 nM and the greatest degradation seen (Dmax) is > 75%.
`COc1cc(-c2cn(C)c(=O)c(C)c2C)cc(OC)c1CN1CCN(Cc2cccc3c2CCN(C(=O)/C(C#N)=C/C2CCCCC2)C3C)CC1` (mixture of isomers) [Compound B73, (E/Z)-3-cyclohexyl-2-(5-((4-(2,6-dimethoxy-4-(1,4,5-trimethyl-6-oxo-1,6-dihydropyridin-3-yl)benzyl)piperazin-1-yl)methyl)-1-methyl-1,2,3,4-tetrahydroisoquinoline-2-carbonyl)acrylonitrile]: the DC50 fell in the range of 25 to 1000 nM and the Dmax fell in the range of 40 to 70%.
With `COc1cc(-c2cn(C)c(=O)c(C)c2C)cc(OC)c1CN1CCN(Cc2cccc3c2CCN(C(=O)/C(C#N)=C/c2cccc(Br)n2)C3C)CC12CC2` (mixture of isomers) [Compound B61, (E/Z)-3-(6-bromopyridin-2-yl)-2-(5-((4-(2,6-dimethoxy-4-(1,4,5-trimethyl-6-oxo-1,6-dihydropyridin-3-yl)benzyl)-4,7-diazaspiro[2.5]octan-7-yl)methyl)-1-methyl-1,2,3,4-tetrahydroisoquinoline-2-carbonyl)acrylonitrile], the DC50 lay within 1.25 to 10 nM and the Dmax was > 75%.
